Results reported in patent US20170035793A1, “Use of P2X Purinergic Receptor Agonists to Enhance Insulin Secretion In Pancreatic Beta Cells” (priority 2010, published 2017).
Entries after “also recorded” stand apart in the source; their conditions may differ.

Tests used:
human islets [1] = assay: Glucose-induced insulin secretion (glucose raised from 3 mM to 11 mM) in perifused human islets; assay type: cell-based; details: glucose 3 mM to 11 mM, MRS2159 10 μM, Brilliant Blue G 1 μM, KN-62 1 μM, reactive blue 2 50 μM, MRS2179 10 μM, CGS15943 10 μM, adenosine 100 μM
Description: (§1) Islet Isolation. Islets were isolated as previously described (57). Monkey islets were isolated from cynomolgus monkeys (Macacca fascicularis) >4 years of age at the time of pancreas procurement, as previously described (58). Pig pancreata were procured from the local slaughterhouse. Mice (C57BL/6) and rat (Lewis rat; Harlan) islets were isolated using a rodent-islet isolation technique (59). All animal protocols were approved by the University of Miami Care and Use Committee. Human pancreatic islets were obtained from the Human Islet Cell Processing Facility at the Diabetes Research Institute, University of Miami Miller School of Medicine or from the Islet Cell Resource basic science islet distribution program, Islet Cell Resource Centers (ICRs) Consortium, Division of Clinical Research, National Center for Research Resources, National Institutes of Health. Human islets were dissociated into single cells using enzyme-free cell dissociation buffer (Invitrogen). Islets and islets cells from Q:1 all species were cultured identically (37° C. and 5% CO2) inCMRL Q:2 medium-1066 (Invitrogen), niacinamide (10 mM; Sigma), ITS (BD Biosciences), Zn2SO4 (15 μM, Sigma), GlutaMAX (2 mM; Invitrogen), Hepes (25 mM; Sigma), FBS (10%; Invitrogen), and penicillinstreptomycin (100 IU/mL-100 μg/mL; Invitrogen).
(§2) Insulin and Glucagon Secretion. Insulin and glucagon secretion were measured as previously described (8, 36). A high-capacity automated perifusion system was developed to dynamically measure hormone secretion from pancreatic islets. A low pulsatility peristaltic pump pushed Hepes-buffered solution (125 mM NaCl, 5.9 mM KCl, 2.56 mM CaCl2, 1 mM MgCl2, 25 mM Hepes, and 0.1% BSA, pH 7.4 at a perifusion rate of 100 μL/min) through a column containing 100 pancreatic islets immobilized in Bio-Gel P-4 Gel (BioRad). Except when otherwise stated, glucose concentration was adjusted to 3 mM for all experiments. Stimuli were applied with the perifusion buffer. The perifusate was collected in an automatic fraction collector designed for a 96-well plate format. The columns containing the islets and the perifusion solutions were kept at 37° C., and the perifusate in the collecting plate was kept at <4° C. Perifusates were collected every 1 min. Hormone release in the perifusate was determined with the human or mouse Endocrine LINCOplex Kit following manufacturer's instructions (Lincoresearch). Human islet preparations varied considerably in their quality. Thus, the magnitudes of the responses to different stimuli were compared with the same recording or using recordings from the same preparation.

mouse islets [2] = assay: Insulin secretion from perifused mouse islets; assay type: cell-based, Mice (C57BL/6); details: 1-1,000 μM
Description: as §1, with “Islets and islets cells from Q:1 all species were cultured identically (37° C. and 5% CO2) inCMRL Q:2 medium-1066 (Invitrogen), niacinamide (10 mM; Sigma), ITS (BD Biosciences), Zn2SO4 (15 μM, Sigma), GlutaMAX (2 mM; Invitrogen), Hepes (25 mM; Sigma), FBS (10%; Invitrogen), and penicillinstreptomycin (100 IU/mL-100 μg/mL; Invitrogen).” left out
(§3) Insulin and Glucagon Secretion. Insulin and glucagon secretion were measured as previously described (8, 36). […] Hormone release in the perifusate was determined with the human or mouse Endocrine LINCOplex Kit following manufacturer's instructions (Lincoresearch). […]

mouse islets [3] = assay: Glucagon secretion from perifused mouse islets; assay type: cell-based, Mice (C57BL/6)
Description: as §1, with “Islets and islets cells from Q:1 all species were cultured identically (37° C. and 5% CO2) inCMRL Q:2 medium-1066 (Invitrogen), niacinamide (10 mM; Sigma), ITS (BD Biosciences), Zn2SO4 (15 μM, Sigma), GlutaMAX (2 mM; Invitrogen), Hepes (25 mM; Sigma), FBS (10%; Invitrogen), and penicillinstreptomycin (100 IU/mL-100 μg/mL; Invitrogen).” left out
as §3

human islets [4] = assay: Dynamic insulin secretion from perifused human islets kept at constant glucose; assay type: cell-based
Description: as §1, §2

monkey islets = assay: Glucagon secretion from perifused monkey islets; assay type: cell-based, cynomolgus monkeys (Macacca fascicularis)
Description: as §1, with “Islets and islets cells from Q:1 all species were cultured identically (37° C. and 5% CO2) inCMRL Q:2 medium-1066 (Invitrogen), niacinamide (10 mM; Sigma), ITS (BD Biosciences), Zn2SO4 (15 μM, Sigma), GlutaMAX (2 mM; Invitrogen), Hepes (25 mM; Sigma), FBS (10%; Invitrogen), and penicillinstreptomycin (100 IU/mL-100 μg/mL; Invitrogen).” left out
as §3

rat islets = assay: Insulin secretion from perifused rat islets; assay type: cell-based, rat (Lewis rat); details: 1-1,000 μM
Description: as §1, with “Islets and islets cells from Q:1 all species were cultured identically (37° C. and 5% CO2) inCMRL Q:2 medium-1066 (Invitrogen), niacinamide (10 mM; Sigma), ITS (BD Biosciences), Zn2SO4 (15 μM, Sigma), GlutaMAX (2 mM; Invitrogen), Hepes (25 mM; Sigma), FBS (10%; Invitrogen), and penicillinstreptomycin (100 IU/mL-100 μg/mL; Invitrogen).” left out
as §3

Nc1ncnc2c1ncn2[C@@H]1O[C@H](COP(=O)(O)OP(=O)(O)OP(=O)(O)O)[C@@H](O)[C@H]1O [ATP]
effect on glucose-induced insulin secretion (human islets [1]): did not add to the insulin response; also recorded: not effective during abrupt increases in glucose concentration | insulin response of mouse islets (mouse islets [2]): No responses to ATP were observed; also recorded: neither ATP nor any of the other purinergic agonists tested stimulated insulin release | glucagon response of mouse islets (mouse islets [3]): difficult to discern; also recorded: stimulated small increases in glucagon secretion | EC50 (human islets [4]; 3 mM and 11 mM glucose, read-out: high affinity component of the concentration response relationship for insulin release): ~500 nM | insulin secretory response to the agonist at low glucose (human islets [4]; 3 mM glucose, ATP 100 μM (or concentration series), ATPγS 50 μM, BzATP 50 μM, α,β-methylene ATP 50 μM, ADP 100 μM, UTP 100 μM, adenosine 100 μM): elicited insulin secretory responses; also recorded: stimulated increases in insulin release concentration dependently; also recorded: promoted strong responses; also recorded: elicited large insulin and [Ca^2+]i, responses | response to high glucose (11 mM) compared with the increase elicited by ATP (1 mM) (human islets [4]; ATP 1 mM response as reference): 101%±30 | insulin release on increasing extracellular ATP >1 mM (human islets [4]; ATP >1 mM): did not further raise insulin release | insulin responses to the agonist in islets kept at high glucose (human islets [4]; constant 11 mM glucose, ATP 100 μM, ATPγS 50 μM, BzATP 50 μM, UTP 100 μM, ADP 100 μM): stimulated increases in insulin release concentration dependently; also recorded: promoted strong responses | glucagon response of monkey islets (monkey islets): stimulated small increases in glucagon secretion | insulin response of rat islets (rat islets): No responses to ATP were observed; also recorded: neither ATP nor any of the other purinergic agonists tested stimulated insulin release; also recorded: only high concentrations of ATP (1 mM) induced small increases in insulin release
